For 1 compound, MIC and ring closure, isolated yield results are on record in US5698670A, “Aureobasidins” (priority 1993, dated 1997).

The subject of data set [1] is Cryptococcus neoformans TIMM0354. In kind it is cell-based. On the procedure:
(§1) MIC was measured by agarose plate dilution method (cultivated at 30° C. for 2 days) using saburo-dextrose agarose culture (glucose 2 W/V %, polipeptone 1 W/V %, agarose 1.5 W/V %). Control was Aureobasidin A (AbA).

Data set [2] deals with Aspergillus fumigatus TIMM2766. It is filed as cell-based. The settings on record: Aspergillus fumigatus TIMM2766; saburo-dextrose agarose culture, 30° C., 2 days. As to the method: as §1
For data set [3] the following is noted: from H-aIle-MeVal-Leu-βHOMeVal-dHmp-MeVal-Cha-MePhe-Pro-OH?; amide bond; 27-membered ring; PyBroP/DIEA; CH2Cl2; 1.01 mM; 25.0 °C.
For data set [4], the system named is Candida glabrata TIMM1062. Nature of the data set: MIC by agarose plate dilution method. The settings on record: saburo-dextrose agarose culture, 30° C., 2 days. It is filed as cell-based. As to the method: as §1
Data set [5] relates to Candida albicans TIMM0136. Nature of the data set: MIC by agarose plate dilution method. It is filed as cell-based. To be noted: saburo-dextrose agarose culture, 30° C., 2 days. On the procedure: as §1
Data set [6] relates to Candida albicans TIMM0171. Nature of the data set: MIC by agarose plate dilution method. In kind it is cell-based. To be noted: saburo-dextrose agarose culture, 30° C., 2 days. On the procedure:
as §1

The subject of another data set is Candida kefyr TIMM0301. Nature of the data set: MIC by agarose plate dilution method. In kind it is cell-based. The settings on record: saburo-dextrose agarose culture, 30° C., 2 days. As to the method:
as §1

≈ marks a conversion by molar mass, not a printed value. Like-named read-outs stand apart in the source and are kept apart here. Numbered stars: 1 amine (or outer) side, 2 acyl side, 3 side chain; on linkers, the order of the positions; unused ones are H or OH. Square brackets hold non-standard residues; d marks the D form. Peptide text beside a SMILES is read from it. X1 = CC[C@@H](C)[C@@H](O[*:1])C(=O)[*:2]; NMeVal(β-OH) = CN[C@H](C(=O)O)C(C)(C)O; NMeF = CN[C@@H](Cc1ccccc1)C(=O)O; aIle = CC[C@@H](C)[C@H](N)C(=O)O; Cha = N[C@@H](CC1CCCCC1)C(=O)O; NMeV = CN[C@H](C(=O)O)C(C)C Some results are limits rather than exact numbers.

Usually MIC stands for the lowest concentration that inhibits growth of the organism. Read a high MIC as weaker potency. In the case of `CC[C@@H](C)[C@@H]1NC(=O)[C@@H]2CCCN2C(=O)[C@H](Cc2ccccc2)N(C)C(=O)[C@H](CC2CCCCC2)NC(=O)[C@H](C(C)C)N(C)C(=O)[C@@H]([C@H](C)CC)OC(=O)[C@H](C(C)(C)O)N(C)C(=O)[C@H](CC(C)C)NC(=O)[C@H](C(C)C)N(C)C1=O` [Compound 6, cyclo(L -aIle-L -MeVal-L -Leu-L -βHOMeVal-D -Hmp-L -MeVal-L -Cha-L -MePhe-L -Pro)] (cyclo([aIle][NMeV]L[NMeVal(β-OH)][X1][NMeV][Cha][NMeF]P)), the MIC is 0.20 µg/mL (≈ 0.181 µM) in data set [1] (Cryptococcus neoformans TIMM0354, saburo-dextrose agarose culture, 30° C., 2 days); 0.10 to 0.39 µg/mL in data set [1] (TIMM0354); greater than 25 µg/mL in data set [2]; 1.56 µg/mL (≈ 1.41 µM) in data set [4]; 0.39 µg/mL (≈ 0.352 µM) in data set [5]; 0.20 µg/mL (≈ 0.181 µM) in data set [6]. In the data set with Candida kefyr TIMM0301, this compound gave an MIC of 1.56 µg/mL (≈ 1.41 µM). The same compound gave a ring closure, isolated yield in data set [3] of 23.9%.
